Results reported in ChEMBL document CHEMBL5518206, “Hit-to-Lead Identification and Validation of a Triaromatic Pleuromutilin Antibiotic Candidate” (J Med Chem, 2024).
pIC50: −log10 of the molar value. In brackets after ≈: the same amount, converted by molar mass. Activity calls are given as the source filed them. The rule behind the calls is not given here.

Legend:
[1] = Apparent permeability from basolateral to apical side in human Caco-2 cells at 100 uM measured upto 120 mins by LC-MS analysis; format: ADME, cell-based
[2] = Efflux ratio of apparent permeability from basolateral to apical side over apical to basolateral side in human Caco-2 cells at 280 uM and measured after 120 mins by LC-MS analysis; format: ADME, cell-based
[3] = in vitro; settings: human, liver microsomes
[4] = target: Voltage-gated inwardly rectifying potassium channel KCNH2 (Homo sapiens, UniProt Q12809); assay: Inhibition of hERG expressed in HEK293 cells assessed as tail current measured after 8 mins by automated whole-cell Qpatch Clamp assay
Sequence of Voltage-gated inwardly rectifying potassium channel KCNH2 (Q12809 whole entry): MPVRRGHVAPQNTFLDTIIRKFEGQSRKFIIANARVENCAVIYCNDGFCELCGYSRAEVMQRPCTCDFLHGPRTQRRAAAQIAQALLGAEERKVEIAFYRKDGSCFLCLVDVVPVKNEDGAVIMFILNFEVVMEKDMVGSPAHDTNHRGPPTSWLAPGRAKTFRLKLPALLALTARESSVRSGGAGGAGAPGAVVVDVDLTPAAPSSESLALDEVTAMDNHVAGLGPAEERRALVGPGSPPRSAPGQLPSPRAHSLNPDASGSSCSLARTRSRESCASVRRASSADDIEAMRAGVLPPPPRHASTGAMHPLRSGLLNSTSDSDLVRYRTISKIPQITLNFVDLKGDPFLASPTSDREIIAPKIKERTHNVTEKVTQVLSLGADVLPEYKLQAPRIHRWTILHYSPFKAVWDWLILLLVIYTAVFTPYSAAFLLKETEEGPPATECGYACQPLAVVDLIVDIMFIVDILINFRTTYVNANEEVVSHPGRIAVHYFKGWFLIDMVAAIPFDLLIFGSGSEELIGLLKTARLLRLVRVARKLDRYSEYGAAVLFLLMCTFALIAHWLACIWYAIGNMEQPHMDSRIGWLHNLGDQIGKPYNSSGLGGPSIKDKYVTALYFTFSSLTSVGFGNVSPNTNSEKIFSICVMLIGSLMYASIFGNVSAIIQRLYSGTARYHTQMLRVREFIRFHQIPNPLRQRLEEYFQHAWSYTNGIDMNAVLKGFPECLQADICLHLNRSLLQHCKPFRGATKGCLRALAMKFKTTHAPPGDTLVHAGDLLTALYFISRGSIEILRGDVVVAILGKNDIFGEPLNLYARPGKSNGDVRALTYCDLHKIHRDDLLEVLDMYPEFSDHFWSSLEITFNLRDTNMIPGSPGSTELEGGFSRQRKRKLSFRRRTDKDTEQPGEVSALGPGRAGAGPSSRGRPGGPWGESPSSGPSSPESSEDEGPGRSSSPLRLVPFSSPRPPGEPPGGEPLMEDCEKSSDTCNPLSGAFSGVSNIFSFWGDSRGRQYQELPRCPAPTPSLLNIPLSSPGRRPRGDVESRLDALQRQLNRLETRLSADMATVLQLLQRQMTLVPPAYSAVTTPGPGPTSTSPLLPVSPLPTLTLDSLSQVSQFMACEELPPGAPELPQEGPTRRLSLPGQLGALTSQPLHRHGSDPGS

[5] = tested on: Staphylococcus aureus; assay: Antibacterial activity against multi drug-resistant Staphylococcus aureus USA300 FPR3757 assessed as reduction in bacterial growth of original inoculum at 4 times of MIC concentration measured after 24 hrs by time-kill assay; format: functional
[6] = tested on: Staphylococcus aureus; assay: Induction of resistant development in -(6-(6-(Piperazin-1-y1)-9H-purin-9-y)methyl)pyridin-3-y1)-1H-1,2,3-triazol-1-yl)-22-deoxypleuromutilin-16 passages resistance developed Staphylococcus aureus USA300 FPR3757 assessed as fold increase in MIC at sub-MIC concentration measured after 28 passages with conjugate by serial passage assay; format: functional
[7] = Apparent permeability from apical to basolateral side in human Caco-2 cells at 280 uM measured upto 120 mins by LC-MS analysis; format: ADME, cell-based
[8] = tested on: Enterococcus faecium; assay: Antibacterial activity against Vancomycin-resistant Enterococcus faecium assessed as inhibition of visible growth incubated for 20 to 24 hrs by microbroth serial dilution assay; format: functional; settings: time 20-24 hrs, read-out: MIC100
[9] = tested on: Enterococcus faecalis; assay: Antibacterial activity against Enterococcus faecalis assessed as inhibition of visible growth incubated for 20 to 24 hrs by microbroth serial dilution assay; format: functional; settings: time 20-24 hrs, read-out: MIC100
[10] = in vitro; settings: human, liver microsomes; remark: listed apart in the source
[11] = target: Cytochrome P450 3A4 (Homo sapiens, UniProt P08684); assay: Inhibition of human CYP3A4 incubated for 60 mins by red fluorescent-probe-based microsomal assay; format: ADME
Sequence of Cytochrome P450 3A4 (P08684 whole entry): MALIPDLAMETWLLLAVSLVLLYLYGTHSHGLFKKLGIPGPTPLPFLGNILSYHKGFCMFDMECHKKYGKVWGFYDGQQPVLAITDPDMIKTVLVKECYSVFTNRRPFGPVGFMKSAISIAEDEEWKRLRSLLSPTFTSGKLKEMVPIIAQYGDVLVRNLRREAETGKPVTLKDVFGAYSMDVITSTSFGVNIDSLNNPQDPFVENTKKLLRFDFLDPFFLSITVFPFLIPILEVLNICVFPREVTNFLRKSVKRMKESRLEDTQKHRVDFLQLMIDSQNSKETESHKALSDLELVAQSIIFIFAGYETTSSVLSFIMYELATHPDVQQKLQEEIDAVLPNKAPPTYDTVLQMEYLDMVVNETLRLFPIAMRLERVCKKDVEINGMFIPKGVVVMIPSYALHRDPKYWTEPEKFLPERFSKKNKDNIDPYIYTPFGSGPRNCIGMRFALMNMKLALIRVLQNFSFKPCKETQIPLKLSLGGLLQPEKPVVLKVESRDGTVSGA

[12] = Inhibition of P-gp efflux in MDCKII-MDR1 cells using calcein-AM as substrate assessed as intracellular calcein fluorescence preincubated for 15 mins followed by substrate addition and measured by fluorescence based assay; format: cell-based; settings: Canis lupus familiaris
[13] = tested on: Enterococcus faecium; assay: Antibacterial activity against Linezolid/Ampicillin/ciprofloxacin/Vancomycin-resistant Enterococcus faecium assessed as inhibition of visible growth incubated for 20 to 24 hrs by microbroth serial dilution assay; format: functional; settings: time 20-24 hrs, read-out: MIC100
[14] = in vitro; settings: pig, liver microsomes
[15] = Solubility of the compound in Dulbecco's PBS at 20 degree C measured after 24 hrs
[16] = in vitro; settings: mouse, liver microsomes
[17] = tested on: Staphylococcus aureus; assay: Antibacterial activity against multi drug-resistant Staphylococcus aureus USA300 FPR3757 assessed as reduction in bacterial growth at 4 times of MIC concentration measured after 6 hrs by time-kill assay; format: functional
[18] = tested on: MDCK-MDR1; assay: Cytotoxicity against MDCKII-MDR1 cells assessed as cell viability at 100 uM measured by MTT assay; format: toxicity, cell-based, Canis lupus familiaris; settings: dog, mdck-mdr1, 100 µM
[19] = target: hERG (KCNH2) (Homo sapiens, UniProt Q12809); assay: Inhibition of hERG expressed in HEK293 cells assessed as tail current at 60 uM measured after 8 mins by automated whole-cell Qpatch Clamp assay relative to control; settings: HEK293 cells that express hERG
Sequence of hERG (KCNH2) (Q12809 whole entry): as the sequence (Q12809 whole entry) above

[20] = tested on: Staphylococcus aureus; assay: Antibacterial activity against multi drug-resistant Staphylococcus aureus USA300 FPR3757 assessed as inhibition of visible growth incubated for 20 to 24 hrs by microbroth serial dilution assay; format: functional; settings: time 20-24 hrs, read-out: MIC100
[21] = Plasma protein binding in human at 5 to 15 uM incubated for 5 hrs by LC-MS analysis; format: ADME, cell-free; settings: dose 5-15 µM, read-out: PPB (converted)
[22] = tested on: Streptococcus pneumoniae; assay: Antibacterial activity against Streptococcus pneumoniae assessed as inhibition of visible growth incubated for 20 to 24 hrs by microbroth serial dilution assay; format: functional; settings: time 20-24 hrs, read-out: MIC100
[23] = Efflux ratio of apparent permeability from basolateral to apical side over apical to basolateral side in human Caco-2 cells at 100 uM and measured after 120 mins by LC-MS analysis; format: ADME, cell-based
[24] = tested on: Staphylococcus aureus; assay: Antibacterial activity against multi drug-resistant Staphylococcus aureus USA300 FPR3757 assessed as reduction in bacterial growth of original inoculum at 4 times of MIC concentration measured after 24 hrs by time-kill assay relative to control; format: functional
[25] = tested on: Escherichia coli; assay: Antibacterial activity against Escherichia coli assessed as inhibition of visible growth incubated for 20 to 24 hrs by microbroth serial dilution assay; format: functional, organism-based; settings: time 20-24 hrs
[26] = tested on: Staphylococcus aureus; assay: Induction of resistant development in -(6-(6-(Piperazin-1-y1)-9H-purin-9-y)methyl)pyridin-3-y1)-1H-1,2,3-triazol-1-yl)-22-deoxypleuromutilin-16 passages resistance developed Staphylococcus aureus USA300 FPR3757 assessed as fold increase in MIC at sub-MIC concentration measured after 5 passages with conjugate by serial passage assay; format: functional
[27] = Apparent permeability from apical to basolateral side in human Caco-2 cells at 100 uM measured upto 120 mins by LC-MS analysis; format: ADME, cell-based
[28] = tested on: Staphylococcus aureus; assay: Antibacterial activity against multi drug-resistant Staphylococcus aureus USA300 FPR3757 assessed as reduction in bacterial growth at 1 times of MIC concentration measured at first 12 hrs by time-kill assay; format: functional
[29] = in vitro; settings: mouse, liver microsomes; remark: listed apart in the source
[30] = in vitro; settings: pig, liver microsomes; remark: listed apart in the source
[31] = Apparent permeability from basolateral to apical side in human Caco-2 cells at 280 uM measured upto 120 mins by LC-MS analysis; format: ADME, cell-based
[32] = Elimination rate constant in NMRI female mouse at 60 mg/kg, sc by HPLC analysis; format: ADME, organism-based; settings: in vivo
[33] = Volume of distribution in NMRI female mouse at 20 mg/kg, sc by HPLC analysis; format: ADME, organism-based; settings: in vivo
[34] = Plasma Concentration in pig at 3 mg/kg, iv measured upto 240 mins by LC-MS/MS analysis; format: ADME, organism-based, Sus scrofa
[35] = Volume of distribution in NMRI female mouse at 60 mg/kg, sc by HPLC analysis; format: ADME, organism-based; settings: in vivo
[36] = Elimination rate constant in pig plasma at 10 mg/kg, po measured upto 240 mins by LC-MS/MS analysis; format: ADME, organism-based, Sus scrofa
[37] = Clearance in NMRI female mouse at 20 mg/kg, sc by HPLC analysis; format: ADME, organism-based; settings: in vivo
[38] = Cmax in NMRI female mouse at 30 mg/kg, po by HPLC analysis; format: ADME, organism-based; settings: in vivo
[39] = Clearance in NMRI female mouse at 30 mg/kg, iv by HPLC analysis; format: ADME, organism-based; settings: in vivo
[40] = AUC (0 to infinity) in pig plasma at 10 mg/kg, po measured upto 240 mins by LC-MS/MS analysis; format: ADME, organism-based, Sus scrofa; settings: in vivo, 4 h
[41] = Half life in pig urine at 3 mg/kg, iv measured upto 240 mins by LC-MS/MS analysis; format: ADME, organism-based, Sus scrofa

Row | SMILES | Papp B→A at 2 h, 100 µM [1] | efflux ratio at 2 h, 280 µM [2] | half-life at 0.5 h, 1 µM [3] | pIC50 [4] | Activity [5] | Papp A→B at 2 h, 280 µM [7] | MIC [8] | MIC [9] | CLint scaled at 0.5 h, 1 µM [10] | pIC50 [11] | pIC50 [12] | MIC [13] | half-life at 0.5 h, 1 µM [14] | solubility at 24 h [15] | CLint scaled at 0.5 h, 1 µM [16] | Activity [17] | Activity [18] | inhibition at 8 min, 60 µM [19] | MIC [20] | fraction unbound at 5 h, up to 15 µM [21] | also measured
1 | C=C[C@]1(C)C[C@@H](OC(=O)CS[C@@H]2CC[C@@H](N)C[C@H]2O)[C@]2(C)[C@H](C)CC[C@]3(CCC(=O)[C@H]32)[C@@H](C)[C@@H]1O [LEFAMULIN] | 25.7 ×10⁻⁶ cm/s | 3.9 | 4.3 min | 3.90 | 3 log10CFU/ml | 3.19 ×10⁻⁶ cm/s | 0.12 µg/mL (≈ 0.236 µM) | 0.06 µg/mL (≈ 0.118 µM) | 1460 mL/min/kg | 6.12 | 4.37 | 0.12 µg/mL (≈ 0.236 µM) | 15.3 min | 1920 µM (≈ 973 µg/mL) | 478 mL/min/kg | 2.5 log10CFU/ml | Non-Toxic | 32.8% | 0.12 µg/mL (≈ 0.236 µM) | 0.34 | fold change (FC) [6]: 128; MIC [22]: 0.25 µg/mL (≈ 0.492 µM); efflux ratio at 2 h, 100 µM [23]: 40.8; inhibition (INH) [24]: 99.9%; Activity [25]: inactive; fold change (FC) [26]: 8; Papp A→B at 2 h, 100 µM [27]: 0.63 ×10⁻⁶ cm/s; Activity [28]: 2 log10CFU/ml; half-life at 0.5 h, 1 µM [29]: 11.5 min; CLint scaled at 0.5 h, 1 µM [30]: 359 mL/min/kg; Papp B→A at 2 h, 280 µM [31]: 12.5 ×10⁻⁶ cm/s
2 | C=C[C@]1(C)C[C@@H](OC(=O)Cn2cc(-c3ccc(Cn4cnc5c(N6CCNCC6)ncnc54)nc3)nn2)[C@]2(C)[C@H](C)CC[C@]3(CCC(=O)[C@H]32)[C@@H](C)[C@@H]1O | 23 ×10⁻⁶ cm/s | 2.5 | 3.7 min | < 3.70 | 3 log10CFU/ml | 2.12 ×10⁻⁶ cm/s | 0.03 µg/mL (≈ 0.0415 µM) | 0.12 µg/mL (≈ 0.166 µM) | 1710 mL/min/kg | 6.39 | 4.33 | 0.12 µg/mL (≈ 0.166 µM) | 1.3 min | 114 µM (≈ 82.4 µg/mL) | 929 mL/min/kg | ~3 log10CFU/ml | Non-Toxic | 27.4% | 0.12 µg/mL (≈ 0.166 µM) | 0.27 | k el [32]: 0.000102 s⁻¹; Vd [33]: 17.1 L/kg; concentration at 4 h [34]: 866 ng/mL; Vd [35]: 22 L/kg; k el at 4 h [36]: 0.000518 s⁻¹; CL/F [37]: 90.3 mL/min/kg; Cmax [38]: 8.2 ng/mL; clearance [39]: 69.8 mL/min/kg; MIC [22]: 0.03 µg/mL (≈ 0.0415 µM); efflux ratio at 2 h, 100 µM [23]: 48; inhibition (INH) [24]: 99.9%; AUC [40]: 7.1 µg/mL/min; half-life [41]: 27.6 min; Papp A→B at 2 h, 100 µM [27]: 0.48 ×10⁻⁶ cm/s; Activity [28]: 2 log10CFU/ml; half-life at 0.5 h, 1 µM [29]: 5.9 min; CLint scaled at 0.5 h, 1 µM [30]: 4200 mL/min/kg; Papp B→A at 2 h, 280 µM [31]: 5.34 ×10⁻⁶ cm/s
